# Laboratory results published in US7270767B1, “Environmentally friendly de-icer and anti-icer compositions” (priority 1999, dated 2007).
# Like-named read-outs stand apart in the source and are kept apart here.
# Legend:
# Rat = details: cited from earlier work
# D. Magnia = assay: Acute aquatic toxicity, 48 hr LC50; format: in vivo, daphnia magna
# Source text: The present invention provides for deicing and anti-icing compositions that are environmentally advantaged.
# As aforesaid, there are environmental issues associated with deicers and anti-icers, mostly as a result of the type of FPD used. Freezing point depressants are typically toxic to mammals. Ethylene glycol, in particular, is toxic to mammals (see rat LD50 data, Table 3). LC50, refers to Lethal Concentration, 50%, which is the concentration of a substance at which 50% of the population of test organisms die. Ethylene glycol has also been listed by the EPA as a hazardous air pollutant (HAP).
# Another aspect of concern is the toxicity of FPDs on aquatic life and environment. […] (see Table 4, FPD aquatic toxicity data).
# Surface tension = format: physicochemical
# Source text: Surfactants by their very nature can have toxic effects on aquatic organisms. They can coat surfaces or membranes required for the organism's oxygen exchange with the environment. Thus, it is advantageous for surfactants to degrade rapidly in the environment once their useful purpose has been served. Preferred surfactants for use in the present formulations have low aquatic toxicity (Table 4) and are biodegradable (see FIG. 2). Preferably they are soluble or dispersible in water, so that they form homogenous solutions or mixtures with the FPD/water mixtures in the fluid. Also it is preferred that the surfactant reduces the surface tension of the fluid below 35 dynes/cm (see surface tension, Table 6).
Compound,"Acute tox. to D. Magnia, ppm (48 hr LC50) (D. Magnia)",also measured
"CC(O)CCO (centres unmarked) [1,3 Butanediol, reference compound]",,"Rat Acute Oral Toxicity (LD50, g/kg) (Rat; oral, acute): 18.6 g/kg"
"OCCO [Ethylene glycol, reference compound]","77,000 ppm",
"CC(O)CO (centres unmarked) [Propylene glycol, reference compound]","55,000 ppm",
OCCOCCOCCO [Triethylene glycol],"66,000 ppm","Rat Acute Oral Toxicity (LD50, g/kg) (Rat; in vivo, po): 17 g/kg"
O [Water],,Surface Tension (dynes/cm) (Surface tension): 75 dynes/cm
PEG-12 oleate,"13,000 ppm",
PEG-20 sorbitan oleate,"46,000 ppm",
